Experimental data: patent US6458981B1, “Composition and method for preparing amino acid chelate hydroxides free of interfering ions” (Albion International, Inc., priority 2000, dated 2002)

How the values were obtained:
[1] = zero ionic strength; reaction M^2+ + (Gly)^- <-> M(Gly)^+; cited from earlier work
[2] = Rubbing a portion between thumb and finger (hygroscopicity); format: physicochemical; details: rubbed between the thumb and finger; moisture from thumb, finger and surrounding air
Text: Sample 1 was further compared to Sample 2 by rubbing a portion of each between the thumb and finger.

[3] = Particle size; format: physicochemical
Text: The particle size found in Sample 1 and Sample 2 was about 70 mesh.

[4] = Shaking the powder in a plastic bag (electrostatic behaviour); format: physicochemical; details: shaken in a plastic bag
Procedure: A 10:1 mixture of copper glycinate to terra alba (CaSO4) [Sample 1] was prepared and shaken together in a plastic bag. Next, a pure copper glycinate without the presence of terra alba [Sample 2] was also prepared and shaken in a plastic bag.

[5] = Addition to stimulated gastric solution (stability in an acid environment); format: physicochemical; details: added to a stimulated gastric solution
Text: Sample 1 was similarly added to a stimulated gastric solution.

Compound	log of the equilibrium constant [1]	hygroscopicity: balling up with moisture [2]	particle size [3]	electrostatic behaviour: product sticking to the walls of the bag [4]	color change in stimulated gastric solution (stability in acid environment) [5]
copper	8.56				
NCC(=O)[O-].NCC(=O)[O-].[Cu+2] [Sample 2, copper glycinate]		quickly balled up with moisture	about 70 mesh	a blue haze of product stuck the walls of the bag	caused the product to change color
